# The supplement of paper PMC10307832
# Assays:
# Test in all cases: relative viability (nuclei count vs DMSO), 5 days (fraction); higher = more cells survive
# [1] = compound: C1CSC2=C(C(=O)N1)SC3=C2C=C(C=C3)O [kb NB 142-70] + CCNC(=O)c1noc(-c2cc(C(C)C)c(O)cc2O)c1-c1ccc(CN2CCOCC2)cc1 [Luminespib] (partner 0.01 µM)
# Procedure, shortened: (§1)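 The day after seeding in 1536-well plates, lung cancer cell lines were treated by pin tool with a single drug, or with a fixed anchor-drug dose together with five library-drug doses (not always all listed) in √10 steps. After 5 days, a combined fix-and-stain solution (final 0.05% Triton X-100, 1% formaldehyde, 1 ug/ml Hoechst) was added. Nuclei counted on 4× images gave relative viability as treated counts over vehicle counts, reported as the median of duplicate plates.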
# [2] = compound: NCC(=O)Nc1ccc(-n2nc(C(F)(F)F)cc2-c2ccc3c(ccc4ccccc43)c2)cc1 + Cc1cc(Nc2cc(N3CCN(C)CC3)nc(Sc3ccc(NC(=O)C4CC4)cc3)n2)n[nH]1 [Tozasertib] (partner 0.1 µM)
# Procedure, shortened: as §1
# [3] = compound: NCC(=O)Nc1ccc(-n2nc(C(F)(F)F)cc2-c2ccc3c(ccc4ccccc43)c2)cc1 + COc1cccc2cc(-c3nc([C@H]4CC[C@H](C(=O)O)CC4)n4ncnc(N)c34)[nH]c12 [OSI-027] (partner 0.5 µM)
# Procedure, shortened: as §1
# [4] = compound: NCC(=O)Nc1ccc(-n2nc(C(F)(F)F)cc2-c2ccc3c(ccc4ccccc43)c2)cc1 + Cc1nc(NC(=O)N2CCC[C@H]2C(N)=O)sc1-c1ccnc(C(C)(C)C(F)(F)F)c1 [Alpelisib] (partner 2 µM)
# Procedure, shortened: as §1
Cell Line,relative viability ([1]; first compound 0.1 µM),relative viability ([1]; first compound 1 µM),relative viability ([1]; first compound 3.162 µM),relative viability ([2]; first compound 0.02 µM),relative viability ([2]; first compound 0.06325 µM),relative viability ([2]; first compound 0.2 µM),relative viability ([2]; first compound 0.6325 µM),relative viability ([2]; first compound 2 µM),relative viability ([3]; first compound 0.02 µM),relative viability ([3]; first compound 0.06325 µM),relative viability ([3]; first compound 0.2 µM),relative viability ([3]; first compound 0.6325 µM),relative viability ([3]; first compound 2 µM),relative viability ([4]; first compound 0.02 µM),relative viability ([4]; first compound 0.06325 µM),relative viability ([4]; first compound 0.2 µM),relative viability ([4]; first compound 0.6325 µM),relative viability ([4]; first compound 2 µM)
NCI-H1793,0.188,0.179,0.153,0.343,0.346,0.368,0.393,0.324,0.26,0.263,0.321,0.276,0.251,0.682,0.734,0.72,0.666,0.736
NCI-H1915,0.797,0.897,0.489,0.378,0.465,0.426,0.418,0.407,0.463,0.652,0.639,0.617,0.63,1.08,1.08,1.13,1.02,1.04
NCI-H1944,0.708,0.726,0.8,0.239,0.264,0.264,0.26,0.27,0.37,0.442,0.427,0.423,0.47,0.865,0.833,0.793,0.818,0.87
NCI-H1975,0.286,0.197,0.106,0.7,0.841,0.839,0.726,0.747,0.676,0.811,0.772,0.834,0.752,0.668,0.64,0.652,0.677,0.693
NCI-H1993,1.03,0.858,0.673,0.54,0.582,0.572,0.529,0.561,0.545,0.493,0.541,0.483,0.542,0.731,0.654,0.612,0.621,0.762
NCI-H2009,1.15,1.05,0.685,0.821,0.715,0.772,0.692,0.653,0.573,0.613,0.703,0.604,0.609,1.21,1.11,1.19,1.1,1.16
NCI-H2023,0.747,0.661,0.272,0.326,0.394,0.441,0.387,0.321,0.381,0.422,0.428,0.422,0.351,0.606,0.625,0.609,0.577,0.596
NCI-H2085,0.383,0.358,0.339,0.697,0.853,0.836,0.878,0.807,0.688,0.908,0.654,0.691,0.802,0.963,0.978,0.943,0.972,0.965
NCI-H2087,0.183,0.164,0.116,0.208,0.272,0.21,0.26,0.259,0.543,0.612,0.546,0.483,0.626,1.14,0.82,1.06,1.16,0.945
NCI-H2126,0.797,0.878,0.879,0.842,0.892,0.874,0.864,0.852,0.773,0.753,0.726,0.741,0.631,0.784,0.774,0.724,0.765,0.788
